Reference: patent US20110053897A1 (IRM LLC, priority 2009, published 2011)

Target: T1, Syk kinase (Homo sapiens, UniProt P43405)
T1 construct: purchased
Test: Syk kinase inhibition, Caliper LabChip off-chip mobility-shift kinase assay
Assay type: biochemical
Settings: Caliper LabChip assay; read-out: Syk Enzyme IC50
Summary of the method: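 Purified Syk pre-incubated 15 min with compound in 100 mM HEPES pH 7.5, 1 mM DTT, 10 mM MgCl2 or MnCl2, 0.002% Brij-35, then 1.5 μM fluorescein peptide and ATP at apparent KM added; 1–1.5 h at room temperature, 4% DMSO, EDTA stop. Microfluidic mobility-shift product/substrate conversion gave % inhibition; IC50 from 12-point series (10–0.00003 μM) by 4-parameter fit.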

SMILES | IC50
[2H][C@]1(O)CC[C@@H](Nc2nc(Nc3cnccn3)cc3ccn(CC)c(=O)c23)CC1 [compound 992] | 0.012 µM
Cc1ccnc(Nc2cc3ccn(CCN4CCOCC4)c(=O)c3c(N[C@H]3CC[C@@H](O)CC3)n2)c1 [compound 993] | 0.067 µM
O=c1c2c(N[C@H]3CC[C@@H](O)CC3)nc(Nc3cnccn3)cc2ccn1CCN1CCOCC1 [compound 994] | 0.108 µM
Cc1ccnc(Nc2cc3ccn(CCN4CCOCC4)c(=O)c3c(N[C@@H](C)CO)n2)c1 [compound 995] | 0.053 µM
C[C@@H](CO)Nc1nc(Nc2cnccn2)cc2ccn(CCN3CCOCC3)c(=O)c12 [compound 996] | 0.158 µM
Cc1ccnc(Nc2cc3ccn(CCN4CCOCC4)c(=O)c3c(NC(C)(C)C)n2)c1 [compound 997] | 0.296 µM
CC(C)(C)Nc1nc(Nc2cnccn2)cc2ccn(CCN3CCOCC3)c(=O)c12 [compound 998] | 0.205 µM
O=c1c2c(N[C@H]3CC[C@@H](O)CC3)nc(Nc3cnccn3)cc2ccn1CCF [compound 999] | 0.01 µM
C[C@@H](CO)Nc1nc(Nc2cnccn2)cc2ccn(CCF)c(=O)c12 [compound 1000] | 0.074 µM
CC(C)(C)Nc1nc(Nc2cnccn2)cc2ccn(CCF)c(=O)c12 [compound 1001] | 0.049 µM
N#CCCn1ccc2cc(Nc3cnccn3)nc(N[C@H]3CC[C@@H](O)CC3)c2c1=O [compound 1002] | 0.014 µM
C[C@@H](CO)Nc1nc(Nc2cnccn2)cc2ccn(CCC#N)c(=O)c12 [compound 1003] | 0.027 µM
CC(C)(C)Nc1nc(Nc2cnccn2)cc2ccn(CCC#N)c(=O)c12 [compound 1004] | 0.019 µM
COCCn1ccc2cc(Nc3cnccn3)nc(N[C@H]3CC[C@@H](O)CC3)c2c1=O [compound 1005] | 0.017 µM
COCCn1ccc2cc(Nc3cnccn3)nc(NC(C)(C)C)c2c1=O [compound 1006] | 0.096 µM
O=C(Cn1ccc2cc(Nc3cnccn3)nc(N[C@H]3CC[C@@H](O)CC3)c2c1=O)N1CCOCC1 [compound 1007] | 0.132 µM
CC(C)(C)Nc1nc(Nc2cnccn2)cc2ccn(CC(=O)N3CCOCC3)c(=O)c12 [compound 1008] | 0.238 µM

SMILES | IC50
O=c1c2c(N[C@H]3CC[C@@H](O)CC3)nc(Nc3cnccn3)cc2ccn1C1COC1 [compound 1009] | 0.019 µM
O=c1c2c(N[C@H]3CC[C@@H](O)CC3)nc(Nc3cnccn3)cc2ccn1C1CS(=O)(=O)C1 [compound 1010] | 0.01 µM
CC(C)(C)Nc1nc(Nc2cnccn2)cc2ccn(CC(O)C(F)(F)F)c(=O)c12 (stereo not drawn) [compound 1011] | 0.459 µM
O=c1c2c(N[C@H]3CC[C@@H](O)CC3)nc(Nc3cnccn3)cc2ccn1CC(O)C(F)(F)F (stereo partly drawn) [compound 1012] | 0.056 µM
CC(C)(C)Nc1nc(Nc2cnccn2)cc2ccn(CCOCCO)c(=O)c12 [compound 1013] | 0.069 µM
CC(C)(C)Nc1nc(Nc2cnccn2)cc2ccn(C3COC3)c(=O)c12 [compound 1014] | 0.12 µM
CC(C)(C)Nc1nc(Nc2cnccn2)cc2ccn(C3CS(=O)(=O)C3)c(=O)c12 [compound 1015] | 0.138 µM
CC(C)n1ccc2cc(Nc3c[n+]([O-])ccn3)nc(N[C@H]3CC[C@@H](O)CC3)c2c1=O [compound 1016] | 0.105 µM
CC(C)n1ccc2cc(Nc3c[n+]([O-])ccn3)nc(N[C@H]3CC[C@@H](O)C3)c2c1=O [compound 1017] | 0.025 µM
CC(C)n1ccc2cc(Nc3c[n+]([O-])ccn3)nc(N[C@H]3CC[C@@H](CO)C3)c2c1=O [compound 1018] | 0.013 µM
CC(C)(C)Nc1nc(Nc2cnccn2)cc2ccn(Cc3ccncc3)c(=O)c12 [compound 1019] | 0.301 µM
CC(C)(C)Nc1nc(Nc2cnccn2)cc2ccn(Cc3cccnc3)c(=O)c12 [compound 1020] | 0.164 µM
CC(C)(C)Nc1nc(Nc2cnccn2)cc2ccn(Cc3ccccn3)c(=O)c12 [compound 1021] | 0.219 µM
O=c1c2c(N[C@H]3CC[C@@H](O)CC3)nc(Nc3cnccn3)cc2ccn1CC(F)F [compound 1022] | 0.011 µM
CC(C)(C)Nc1nc(Nc2cnccn2)cc2ccn(CC(F)F)c(=O)c12 [compound 1023] | 0.179 µM
O=c1c2c(N[C@H]3CC[C@@H](O)CC3)nc(Nc3cnccn3)cc2ccn1Cc1ccncc1 [compound 1024] | 0.174 µM

Further lines, results first:

IC50 | SMILES
0.016 µM | O=c1c2c(N[C@H]3CC[C@@H](O)CC3)nc(Nc3cnccn3)cc2ccn1CC(F)(F)F [compound 1025]
0.021 µM | [2H]C([2H])([2H])n1ccc2cc(-c3cnc(N)nc3)nc(N[C@H]3CC[C@@H](O)CC3)c2c1=O [compound 1026]
0.032 µM | CC(C)n1ccc2cc(-c3cnc(N)nc3)nc(N[C@H]3CC[C@@H](O)CC3)c2c1=O [compound 1027]
0.014 µM | Nc1ncc(-c2cc3ccn(CCO)c(=O)c3c(N[C@H]3CC[C@@H](O)CC3)n2)cn1 [compound 1028]
0.072 µM | Nc1ncc(-c2cc3ccn(CCN4CCOCC4)c(=O)c3c(N[C@H]3CC[C@@H](O)CC3)n2)cn1 [compound 1029]
0.048 µM | CC(C)n1ccc2cc(-c3cnc(N)nc3)nc(N[C@H]3CC[C@@H](CO)C3)c2c1=O [compound 1030]
0.007 µM | CC(C)n1ccc2cc(-c3cnc(N)nc3)nc(N[C@H]3CC[C@@H](O)C3)c2c1=O [compound 1031]
0.046 µM | CCn1ccc2cc(-c3cnc(N)nc3)nc(N[C@H]3CC[C@H](O)CC3)c2c1=O [compound 1032]
0.06 µM | CC(C)(C)Nc1nc(-c2cnc(N)nc2)cc2ccn(CCN3CCOCC3)c(=O)c12 [compound 1033]
0.012 µM | CC(C)(C)Nc1nc(Nc2cnccn2)cc2ccn(CCCO)c(=O)c12 [compound 1034]
0.038 µM | Nc1ncc(-c2cc3ccn(CCO)c(=O)c3c(NC3CC3)n2)cn1 [compound 1035]
0.02 µM | CC1(Nc2nc(-c3cnc(N)nc3)cc3ccn(CCO)c(=O)c23)CC1 [compound 1036]
0.014 µM | CCn1ccc2cc(-c3cnc(N)nc3)nc(NC(C)(C)CCO)c2c1=O [compound 1037]
0.012 µM | CCn1ccc2cc(-c3cnc(N)nc3)nc(N[C@H]3CC[C@@H](O)C3)c2c1=O [compound 1039]
0.084 µM | CCn1ccc2cc(Nc3cc(C)ccn3)nc(N[C@@H]3CC[C@@H](O)C3)c2c1=O [compound 1040]
0.158 µM | CCn1ccc2cc(Nc3cc(C)ccn3)nc(N[C@H](CO)C(C)C)c2c1=O [compound 1041]
0.111 µM | CC[C@@H](CO)Nc1nc(Nc2cnccn2)cc2ccn(CC)c(=O)c12 [compound 1042]
0.122 µM | CCn1ccc2cc(Nc3cnccn3)nc(N[C@H](CO)C(C)C)c2c1=O [compound 1043]
0.11 µM | CCn1ccc2cc(Nc3cnccn3)nc(NCC(F)(F)F)c2c1=O [compound 1044]
0.247 µM | CC(C)Nc1nc(Nc2cc(-c3cccnc3)ccn2)cc2cc[nH]c(=O)c12 [compound 1045]
0.113 µM | CC(C)Nc1nc(Nc2cc(-c3cccnc3)ccn2)cc2ccn(C)c(=O)c12 [compound 1046]
0.0772 µM | [2H]C([2H])([2H])n1ccc2cc(Nc3cc(C)ccn3)nc(NC(C)(C)CO)c2c1=O [compound 1047]
0.164 µM | [2H]C([2H])([2H])n1ccc2cc(Nc3cnccn3)nc(NC[C@@H]3CCCO3)c2c1=O [compound 1048]
0.0899 µM | [2H]C([2H])([2H])n1ccc2cc(Nc3cc(C)c(F)cn3)nc(NC(C)(C)CO)c2c1=O [compound 1049]
